Assays:
[1] = biological target: human recombinant acetylcholinesterase (Homo sapiens, UniProt P22303); assay: biochemical; details: 25° C., 30 minutes preincubation, 0.3 mM acetylthiocholine, Dixon plot
[2] = tested on: total cholinesterase activity in the brain; assay: Total cholinesterase activity in brain homogenate of rats after i.p. injection; assay type: in vivo, Male Wistar rats; details: for ChE inhibition: brain 3 hours after injection, relative to saline treated rats; for tolerability of the injected dose: i.p., male Wistar rats, dose giving a cholinergic behavioral effect with minimal side effects
Description: Animals were decapitated 3 hours after injection and the brains rapidly removed. The brain tissue was diced into small pieces, placed on ice and immediately homogenized with a Polytron PT1200 (Kinematic AG) in 10 ml ice cold Tris with 0.1% Triton-X and protease inhibitors. The protease inhibitors in the extraction buffer were Antipain (10 μM), Aprotinin (5 TIU/mg protein), Bestatin ([…]), Leupeptin (10 μM) and Pepstatin (1 μM). The final dilution of the homogenate in the final assay mixture was 120-fold.
Total cholinesterase activity was determined by a modification of the colorimetric method of Ellmann, et al. (Biochem. Pharmacol., 7:88-95 (1961)), as described above. Hydrolysis of acetylthiocholine was monitored indirectly by measurement of the formation of the conjugate between thiocholine and DTNB. Optical density at 405 nm was recorded during five (5) minutes employinga a microplate spectrophotometer (Polarstar, BMG Labtech), and plotted against time. The initial rates were calculated from the slope of the linear portion of the graph.
Cholinesterase activity was normalized for protein content of the homogenate. Relative cholinesterase activity was calculated as the ratio of normalized cholinesterase activity in a rat treated with a control compound or a carbamoyl ester over normalized cholinesterase activity in saline treated rats.

human recombinant acetylcholinesterase, sequence (P22303 32-614): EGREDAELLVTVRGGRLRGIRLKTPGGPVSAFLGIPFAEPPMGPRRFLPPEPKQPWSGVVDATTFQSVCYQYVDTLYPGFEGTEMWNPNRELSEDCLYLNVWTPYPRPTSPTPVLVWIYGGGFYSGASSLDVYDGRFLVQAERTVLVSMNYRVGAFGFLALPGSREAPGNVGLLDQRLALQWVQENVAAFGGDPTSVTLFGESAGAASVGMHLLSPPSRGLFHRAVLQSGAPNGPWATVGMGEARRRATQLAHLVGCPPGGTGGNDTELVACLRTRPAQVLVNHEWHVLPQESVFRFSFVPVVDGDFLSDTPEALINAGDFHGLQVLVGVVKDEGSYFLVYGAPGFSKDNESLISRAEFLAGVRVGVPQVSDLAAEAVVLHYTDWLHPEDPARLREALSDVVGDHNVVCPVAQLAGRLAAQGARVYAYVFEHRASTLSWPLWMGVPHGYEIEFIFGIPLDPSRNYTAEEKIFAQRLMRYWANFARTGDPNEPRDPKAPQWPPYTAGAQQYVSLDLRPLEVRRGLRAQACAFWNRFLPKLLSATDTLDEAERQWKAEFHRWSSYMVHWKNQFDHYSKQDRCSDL

| Compound | IC50 [1] [nM] | tolerability of the injected dose [2] | other results |
| --- | --- | --- | --- |
| Cc1ccccc1O[C@H](CCN(C)C(=O)Oc1cccc([C@H](C)N(C)C)c1)c1ccccc1 [Compound 5] | 460 |  |  |
| C[C@H](Cc1ccccc1)N(C)C(=O)Oc1cccc([C@H](C)N(C)C)c1 [Compound 7] |  | well-tolerated | ChE inhibition ([2]; 2 mg/kg i.p.): 38% |
| C[C@H](Cc1ccccc1)NC(=O)Oc1cccc([C@H](C)N(C)C)c1 [Compound 9] |  | well-tolerated | ChE inhibition ([2]; 8 mg/kg i.p.): 41% |
| C[C@H](Cc1ccccc1)N(C)C(=O)Oc1ccc2c(c1)[C@]1(C)CCN(C)[C@@H]1N2C [Compound 13] | 5440 |  |  |
| C[C@H](Cc1ccccc1)NC(=O)Oc1ccc2c(c1)[C@]1(C)CCN(C)[C@@H]1N2C [Compound 14] | 253 |  |  |
| C[C@@H](Cc1ccccc1)NC(=O)Oc1cccc([C@H](C)N(C)C)c1 [Compound 20] | 449 |  |  |
| CCN(C)C(=O)Oc1cccc([C@H](C)N(C)C)c1 [Rivastigmine, reference compound] |  | well-tolerated |  |

From patent US7795307B2, “Carbamoyl esters that inhibit cholinesterase and release pharmacologically active agents” (priority 2003, dated 2010)
